This note sets out measurements from patent publication US20240270762A1, “PENICILLIN-BINDING PROTEIN INHIBITORS” (priority 2021, published 2024).

For assay [1], the target named is T1, PBP3 from Escherichia coli (K-12) (Escherichia coli, UniProt P0AD68).
T1 construct: made in house
Briefly: Bocillin-FL fluorescence polarization competition binding, E. coli PBP3. An outline of the steps:
(§1)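 Purified PBPs pre-incubated with inhibitor (E. coli PBP3 1.5 μM, 30 min; P. aeruginosa PBP3 0.75 μM, A. baumannii PBP1a 1 μM and PBP3 0.2 μM, 15 min), then Bocillin-FL 0.1 μM (0.05 μM for PBP1a) added; FP read up to 60 min. EC50 = concentration halving bound Bocillin-FL.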
(In general: Polarisation of emitted light reports the rotation of a fluorescent probe.)

In assay [2] the target is T2, PBP3 from Pseudomonas aeruginosa (PAO1) (Pseudomonas aeruginosa, UniProt G3XD46).
T2 construct: made in house
Put plainly: Bocillin-FL fluorescence polarization competition binding, P. aeruginosa PBP3. Conditions: Binding affinity to P. aeruginosa PBP3; fluorescence polarization competition binding assay using Bocillin-FL; read-out: P. aeruginosa PBP3 Potency. An outline of the steps: as §1

The test system of a further assay is P. aeruginosa ATCC 27853. Put plainly: microbe, parasite or virus in culture. In kind it is cell-based. Particulars: Pseudomonas aeruginosa, ATCC27853, read-out: Minimum inhibitory concentration, P. aeruginosa ATCC 27853.
The next assay deals with A. baumannii ATCC 19606. Briefly: microbe, parasite or virus in culture. In kind it is cell-based. Particulars: Acinetobacter baumannii, ATCC19606, read-out: MIC, A. baumannii ATCC 19606.
Assay [3] has as its system P. aeruginosa (ΔmexAB-oprM). Put plainly: Broth microdilution MIC in iron-depleted CAMHB (IDM). In kind it is cell-based. Particulars: Pseudomonas aeruginosa; iron-depleted CAMHB (IDM); […]; read-out: Minimum inhibitory concentration, P. aeruginosa ΔmexAB-oprM. A general note: Dilution methods test growth across graded concentrations, often in twofold steps.
In a further assay the test system is A. baumannii CDC-0045. Put plainly: microbe, parasite or virus in culture. In kind it is cell-based. Particulars: Acinetobacter baumannii, CDC0045, read-out: MIC, A. baumannii CDC-0045.
Assay [4] has as its system B. thailandensis ATCC 700388. Put plainly: microbe, parasite or virus in culture. The assay is classed as cell-based. Conditions: Burkholderia thailandensis, ATCC700388, read-out: Minimum inhibitory concentration (MIC), B. thailandensis ATCC 700388.
Assay [5] deals with B. humptydooensis ATCC BAA-2767. Put plainly: microbe, parasite or virus in culture. The assay is classed as cell-based. Particulars: Burkholderia humptydooensis, ATCCBAA2767, read-out: Minimum inhibitory concentration (MIC), B. humptydooensis ATCC BAA-2767.
In assay [6] the test system is N. gonorrhoeae ATCC 49226. Briefly: Liquid broth MIC in Fastidious broth. Particulars: Neisseria gonorrhoeae, ATCC49226, read-out: Minimum Inhibitory Concentration (MIC), N. gonorrhoeae ATCC 49226.
A further assay deals with N. gonorrhoeae FA1090. Briefly: Liquid broth MIC in Fastidious broth. Conditions: Neisseria gonorrhoeae, FA1090, read-out: Minimum Inhibitory Concentration (MIC), N. gonorrhoeae FA 1090.
Another assay has as its system N. gonorrhoeae MS11. Put plainly: Liquid broth MIC in Fastidious broth. Particulars: Neisseria gonorrhoeae, MS11, read-out: Minimum Inhibitory Concentration (MIC), N. gonorrhoeae MS11.
The next assay concerns N. gonorrhoeae WHO G. Briefly: Liquid broth MIC in Fastidious broth. Particulars: Neisseria gonorrhoeae, read-out: Minimum Inhibitory Concentration (MIC), N. gonorrhoeae WHO G.
The subject of another assay is N. gonorrhoeae WHO L. Briefly: Liquid broth MIC in Fastidious broth. Conditions: Neisseria gonorrhoeae, read-out: Minimum Inhibitory Concentration (MIC), N. gonorrhoeae WHO L.
In another assay the test system is N. gonorrhoeae WHO Z. Put plainly: Liquid broth MIC in Fastidious broth. Particulars: Neisseria gonorrhoeae, read-out: Minimum Inhibitory Concentration (MIC), N. gonorrhoeae WHO Z.
In the next assay the test system is N. gonorrhoeae CDC-0197. Briefly: Liquid broth MIC in Fastidious broth. Conditions: Neisseria gonorrhoeae, CDC0197, read-out: Minimum Inhibitory Concentration (MIC), N. gonorrhoeae CDC-0197.

In brackets after ≈: the same amount, converted by molar mass.

T1 sequence (P0AD68 1-577): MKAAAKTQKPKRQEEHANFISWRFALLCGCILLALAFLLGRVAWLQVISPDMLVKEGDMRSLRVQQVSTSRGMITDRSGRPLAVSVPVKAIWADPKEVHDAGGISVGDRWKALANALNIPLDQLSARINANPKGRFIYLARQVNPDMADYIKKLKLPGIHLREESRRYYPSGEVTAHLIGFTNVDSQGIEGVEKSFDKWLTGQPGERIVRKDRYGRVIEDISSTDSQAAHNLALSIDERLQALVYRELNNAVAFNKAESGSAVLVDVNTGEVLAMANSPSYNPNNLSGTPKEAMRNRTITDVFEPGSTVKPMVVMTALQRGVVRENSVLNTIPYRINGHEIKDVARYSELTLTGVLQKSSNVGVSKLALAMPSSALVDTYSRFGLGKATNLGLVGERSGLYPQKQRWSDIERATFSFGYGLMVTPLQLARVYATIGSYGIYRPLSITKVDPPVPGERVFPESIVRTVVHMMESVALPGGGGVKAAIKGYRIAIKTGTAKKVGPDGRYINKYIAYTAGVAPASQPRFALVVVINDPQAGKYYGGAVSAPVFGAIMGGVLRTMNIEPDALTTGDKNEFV
T2 sequence (G3XD46 whole entry): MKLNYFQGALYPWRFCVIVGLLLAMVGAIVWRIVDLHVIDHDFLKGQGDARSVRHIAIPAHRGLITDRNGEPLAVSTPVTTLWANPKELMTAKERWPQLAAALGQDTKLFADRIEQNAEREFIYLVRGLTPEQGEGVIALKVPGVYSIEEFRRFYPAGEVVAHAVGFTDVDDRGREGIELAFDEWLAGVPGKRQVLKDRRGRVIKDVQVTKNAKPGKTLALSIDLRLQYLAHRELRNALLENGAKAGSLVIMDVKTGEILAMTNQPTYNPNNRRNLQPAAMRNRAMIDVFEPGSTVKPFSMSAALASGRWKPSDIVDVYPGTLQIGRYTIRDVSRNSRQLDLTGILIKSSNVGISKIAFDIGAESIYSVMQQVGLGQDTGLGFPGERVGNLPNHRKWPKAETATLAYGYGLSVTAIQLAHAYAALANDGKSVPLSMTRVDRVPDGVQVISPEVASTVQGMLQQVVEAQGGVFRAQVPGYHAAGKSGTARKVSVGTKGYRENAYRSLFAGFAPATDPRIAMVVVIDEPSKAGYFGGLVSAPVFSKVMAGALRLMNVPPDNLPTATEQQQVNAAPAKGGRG

Broadly, the EC50 is the concentration at which the effect is half-maximal. Higher therefore signals a less potent agent. In [1], `O=C(NCCCN1CCN(C(=O)NC(C(=O)N[C@H]2Cc3ccc(F)c(C(=O)O)c3OB2O)c2cc(F)c(O)c(O)c2Cl)C(=O)C1=O)Nc1ccncc1` (stereo partly drawn) [Example 228, (3R)-3-(2-(2-chloro-5-fluoro-3,4-dihydroxyphenyl)-2-(2,3-dioxo-4-(3-(3-(pyridin-4-yl)ureido)propyl)piperazine-1-carboxamido)acetamido)-7-fluoro-2-hydroxy-3,4-dihydro-2H-benzo[e][1,2]oxaborinine-8-carboxylic acid] registered an EC50 of less than 10 µM. Further, the IC50 in [2] is less than 10 µM. The MIC (in the assay with P. aeruginosa ATCC 27853; in the assay on A. baumannii ATCC 19606; in assay [3]; in the assay with A. baumannii CDC-0045; in assay [4]; in assay [5]) was less than 1 µg/mL each time. Moreover, the MIC in assay [6] is greater than 64 µg/mL; with N. gonorrhoeae FA1090, 1 to 2 µg/mL (≈ 1.32 to 2.63 µM); with N. gonorrhoeae MS11, greater than 64 µg/mL; in the assay on N. gonorrhoeae WHO G, 16 to 32 µg/mL (≈ 21.1 to 42.1 µM); in the assay on N. gonorrhoeae WHO L, greater than 64 µg/mL; with N. gonorrhoeae WHO Z it was greater than 64 µg/mL. In addition, the MIC with N. gonorrhoeae CDC-0197 was greater than 64 µg/mL.
In assay [1], `O=C(CN1CCN(C(=O)NC(C(=O)N[C@H]2Cc3ccc(F)c(C(=O)O)c3OB2O)c2cc(F)c(O)c(O)c2Cl)C(=O)C1=O)Nc1ccc(O)cc1` (stereo partly drawn) [Example 230, (3R)-3-(2-(2-chloro-5-fluoro-3,4-dihydroxyphenyl)-2-(4-(2-((4-hydroxyphenyl)amino)-2-oxoethyl)-2,3-dioxopiperazine-1-carboxamido)acetamido)-7-fluoro-2-hydroxy-3,4-dihydro-2H-benzo[e][1,2]oxaborinine-8-carboxylic acid] had an EC50 of less than 10 µM. For the same compound, the IC50 in assay [2] is less than 10 µM. Further, the MIC was less than 1 µg/mL with P. aeruginosa ATCC 27853; less than 1 µg/mL with A. baumannii ATCC 19606; less than 1 µg/mL in [3]; less than 1 µg/mL in the assay with A. baumannii CDC-0045; 2 to 4 µg/mL (≈ 2.73 to 5.47 µM) in [4]; 2 to 4 µg/mL (≈ 2.73 to 5.47 µM) in [5]. For the same compound, the MIC in [6] fell in the range of 4 to 8 µg/mL (≈ 5.47 to 10.9 µM); with N. gonorrhoeae FA1090, 1 to 2 µg/mL (≈ 1.37 to 2.73 µM); with N. gonorrhoeae MS11, 4 to 8 µg/mL (≈ 5.47 to 10.9 µM); with N. gonorrhoeae WHO G, 4 to 8 µg/mL (≈ 5.47 to 10.9 µM); in the assay with N. gonorrhoeae WHO L, 16 to 32 µg/mL (≈ 21.9 to 43.7 µM); in the assay on N. gonorrhoeae WHO Z it was 4 to 8 µg/mL (≈ 5.47 to 10.9 µM). Moreover, the MIC in the assay with N. gonorrhoeae CDC-0197 fell in the range of 16 to 32 µg/mL (≈ 21.9 to 43.7 µM).
Turning to `O=C(CN1CCN(C(=O)NC(C(=O)N[C@H]2Cc3ccc(F)c(C(=O)O)c3OB2O)c2cc(F)c(O)c(O)c2Cl)C(=O)C1=O)Nc1cccc(O)c1` (stereo partly drawn) [Example 231, (3R)-3-(2-(2-chloro-5-fluoro-3,4-dihydroxyphenyl)-2-(4-(2-((3-hydroxyphenyl)amino)-2-oxoethyl)-2,3-dioxopiperazine-1-carboxamido)acetamido)-7-fluoro-2-hydroxy-3,4-dihydro-2H-benzo[e][1,2]oxaborinine-8-carboxylic acid], the EC50 in [1] is less than 10 µM. Besides, the IC50 in assay [2] is less than 10 µM. In addition, the MIC in the assay on P. aeruginosa ATCC 27853 was less than 1 µg/mL; in the assay on A. baumannii ATCC 19606 it was less than 1 µg/mL; in assay [3] it was less than 1 µg/mL; in the assay with A. baumannii CDC-0045, 2 to 4 µg/mL (≈ 2.73 to 5.47 µM); in assay [4], 2 to 4 µg/mL (≈ 2.73 to 5.47 µM); in assay [5] it was 8 to 16 µg/mL (≈ 10.9 to 21.9 µM). For the same compound, the MIC in [6] was 16 to 32 µg/mL (≈ 21.9 to 43.7 µM); with N. gonorrhoeae FA1090, 1 to 2 µg/mL (≈ 1.37 to 2.73 µM); in the assay with N. gonorrhoeae MS11, 16 to 32 µg/mL (≈ 21.9 to 43.7 µM); with N. gonorrhoeae WHO G, 4 to 8 µg/mL (≈ 5.47 to 10.9 µM); with N. gonorrhoeae WHO L, greater than 64 µg/mL; in the assay with N. gonorrhoeae WHO Z, 16 to 32 µg/mL (≈ 21.9 to 43.7 µM). For the same compound, the MIC in the assay with N. gonorrhoeae CDC-0197 fell in the range of 16 to 32 µg/mL (≈ 21.9 to 43.7 µM).
